Legend:
NFF = assay: Cytotoxicity against human NFF cells after 72 hrs by Alamar Blue assay; type: cell-based
LNCaP [1] = assay: Cytotoxicity against human LNCAP cells after 72 hrs by Alamar Blue assay; type: functional, cell-based
MCF7 = assay: Antiproliferative activity against human MCF7 cells; type: functional, cell-based
Malme-3M = assay: Antiproliferative activity against human MALME-3M cells; type: functional, cell-based
LNCaP [2] = assay: Selectivity index, ratio of IC50 for human NFF cells to IC50 for human LNCaP cells; type: functional
[3] = Antiproliferative activity against human OVCAR3 cells; type: functional, cell-based; settings: OVCAR-3

Compound | IC50 (NFF) | IC50 (LNCaP [1]) | EC50 (MCF7) | EC50 (Malme-3M) | Ratio IC50 (LNCaP [2]) | EC50 [3]
O=C1c2ccccc2-[n+]2ccc3c([nH]c4ccccc43)c21 [FASCAPLYSIN] | 0.339 µM | 0.54 µM | 0.14 µg/mL | 0.03 µg/mL | 0.63 | 0.16 µg/mL
O=C1c2ccccc2-n2c1c1[nH]c3ccccc3c1cc2=O | 32.1 µM | 22.9 µM | – | – | 1.4 | –
O=C(O)c1ccccc1-[n+]1ccc2c(c1)[nH]c1ccccc12.[Cl-] [RETICULATATE] | 19.8 µM | 25.9 µM | – | – | 0.77 | –
COc1cccc2c1C(=O)c1c(O)c3c(c(O)c1C2=O)C[C@@](O)(C(=O)CO)C[C@@H]3O[C@H]1C[C@H](N)[C@H](O)[C@H](C)O1 [DOXORUBICIN] | 0.126 µM | 0.0135 µM | – | – | 8.97 | –
O=C(O)c1ccccc1-n1ccc2c([nH]c3ccccc32)c1=O | 47.6 µM | 44.9 µM | – | – | 1.06 | –

— ChEMBL document CHEMBL3352051, “Isolation, structure determination and cytotoxicity studies of tryptophan alkaloids from an Australian marine sponge Hyrtios sp” (Bioorg Med Chem Lett, 2014)
